Source: patent publication US20110178053A1, “AZACARBOLINE DERIVATIVES, PREPARATION METHOD THEREOF AND THERAPEUTIC USE OF SAME” (SANOFI-AVENTIS, priority 2008, published 2011)
Where two headings read alike, the source gives them in different places.

Tests used:
Pim-2 = molecular target: T1, Pim-2 (Homo sapiens, UniProt Q9P1W9); assay: TR-FRET assay, Pim-2 kinase (phosphorylation of Bad Ser112); format: biochemical; settings: TR-FRET; ATP 40 μM; read-out: IC50 Pim2
T1 construct: His6-labelled recombinant full-length human Pim-1, Pim-2 or Pim-3 protein; His6; made in house
T1 sequence (Q9P1W9 whole entry): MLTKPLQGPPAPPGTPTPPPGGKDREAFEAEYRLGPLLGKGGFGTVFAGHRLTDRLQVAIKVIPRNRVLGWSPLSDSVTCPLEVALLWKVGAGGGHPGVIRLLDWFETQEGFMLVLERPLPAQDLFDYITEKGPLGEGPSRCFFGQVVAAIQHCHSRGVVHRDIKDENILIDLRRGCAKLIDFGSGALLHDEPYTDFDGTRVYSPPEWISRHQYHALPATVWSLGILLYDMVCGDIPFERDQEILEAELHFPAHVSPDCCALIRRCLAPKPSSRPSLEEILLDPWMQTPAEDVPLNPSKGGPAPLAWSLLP
Summary of the method: (§1)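 For each of Pim-1, Pim-2 and Pim-3 (His6-tagged full-length human), compounds were titrated over 10 concentrations in duplicate, typically from 30 μM, with ATP at 40 μM, equal to apparent KM. Bad Ser112 phosphorylation was read as the 665/615 nm TR-FRET ratio and IC50 fitted by 4-parameter logistic model.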

MOLM-13 = assay: Cell viability assay (CellTiter-Blue), MOLM-13; format: cell-based; settings: Homo sapiens
Description: (§2) The representative compounds of the invention are also screened as regards their effects on cell proliferation and viability using a variety of human tumour cell lines, which are representative of various pathological indications. These cell lines include: • Models of haematological cancers: • TF-1 (acute myelogenic leukaemia; AML M6 at the time of diagnosis); • KG-1 (AML; erythroleukaemia evolving into AML); • KG-1a (AML; sub-clone derived from immature KG-1); • EOL-1 (AML; eosinophilic leukaemia); • PL-21 (AML; M3); • ML-2 (AML; T-NHL evolving into T-ALL evolving into AML M4); • HL-60 (AML, M3); • Kasumi-1 (AML); • GDM-1 (AML); • K-562 (CML—chronic myelogenic leukaemia; blastic crisis); • JURL-MK1 (CML; blastic crisis); • DND-41 (T-ALL—-cell acute lymphoblastic leukaemia); • Jurkat (T-ALL); NALM-6 (B-ALL—B-cell ALL); • CEM (ALL; lymphosarcoma evolving into ALL); • Jeko-1 (B-NHL—B-cell non-Hodgkin lymphoma; mantle-cell lymphoma derived from a variant with large cells as a leukaemic transformation); • WSU-DLCL2 (B-NHL; large B-cell diffuse lymphoma); • RL (B-NHL; undifferentiated diffuse); • OCI-Ly10 (B-NHL); • DoHH-2 (B-NHL); • RPMI-8226 (MM—multiple myeloma); • JVM-2 (B-CLL—B-cell chronic lymphocytic leukaemia); and • JVM-3 (B-CLL) • MV4-11 (AML) • MOLM13 (AML). • Solid tumour models: • HCT-116 (bowel cancer); • HT-29 (bowel cancer); • HC-15 (bowel cancer); • H460 (lung cancer; non-small-cell lung cancer); • A375 (melanoma); • B16F10 (melanoma); • MDA-A1 (breast cancer); • MDA-MB231 (breast cancer); • MDA-MB231 adr (breast cancer); • PANC-1 (pancreatic cancer); and • PC-3 (prostate cancer).
(§3) In order to measure the viability, the tumour cells are incubated in a 96-well or 384-well format for 48, 72 or 96 hours, preferably 72 hours, with a compound of the invention at dilutions of a factor 3 with, in general, nine doses in total, the highest dose being equal to 10 μM or 30 μM. The cell viability is evaluated by adding CellTiter-Blue® (Promega, Madison, Wis., United States) for 4 hours and end-point readings are taken using a SpectraMax Genmini EM (Molecular Devices, Sunnyvale, Calif., United States). The CellTiter-Blue® cell viability assay measures the ability of the cells in culture to reduce resazurin to resorufin, the fluorescence signal intensity being directly proportional to the number of live cells.

PLK1 = PLK1 (Homo sapiens, UniProt P53350); assay: PLK1 biochemical inhibition
PLK1, sequence (P53350 whole entry, species assumed): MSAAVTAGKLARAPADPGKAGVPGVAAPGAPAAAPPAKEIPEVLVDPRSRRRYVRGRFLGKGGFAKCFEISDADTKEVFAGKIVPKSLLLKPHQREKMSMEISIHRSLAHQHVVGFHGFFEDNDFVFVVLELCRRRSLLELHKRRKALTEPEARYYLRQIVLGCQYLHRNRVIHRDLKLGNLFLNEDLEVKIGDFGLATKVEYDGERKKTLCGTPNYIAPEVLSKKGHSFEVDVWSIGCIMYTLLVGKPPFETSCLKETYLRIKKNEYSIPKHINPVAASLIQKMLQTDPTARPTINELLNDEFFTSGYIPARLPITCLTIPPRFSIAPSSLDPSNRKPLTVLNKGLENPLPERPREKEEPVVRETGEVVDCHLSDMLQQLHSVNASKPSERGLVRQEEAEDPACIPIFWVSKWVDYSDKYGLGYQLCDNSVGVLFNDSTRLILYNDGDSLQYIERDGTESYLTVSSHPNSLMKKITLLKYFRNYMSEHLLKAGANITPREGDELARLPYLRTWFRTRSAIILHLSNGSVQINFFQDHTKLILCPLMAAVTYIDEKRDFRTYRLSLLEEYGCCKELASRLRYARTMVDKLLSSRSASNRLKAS

MV4-11 = assay: Cell viability assay (CellTiter-Blue), MV4-11; format: cell-based; settings: Homo sapiens
Description: as §2, §3

EOL-1 = assay: Cell viability assay (CellTiter-Blue), EOL-1; format: cell-based; settings: Homo sapiens, EOL1, read-out: EC50 EOL-1 μM (lymphoma)
Description: as §2, §3

Pim-1 = molecular target: T2, Pim-1 (Homo sapiens, UniProt P11309); assay: TR-FRET assay, Pim-1 kinase (phosphorylation of Bad Ser112); format: biochemical; settings: TR-FRET; ATP 40 μM; read-out: IC50 Pim1
T2 construct: His6-labelled recombinant full-length human Pim-1, Pim-2 or Pim-3 protein; His6; made in house
T2 sequence (P11309 whole entry): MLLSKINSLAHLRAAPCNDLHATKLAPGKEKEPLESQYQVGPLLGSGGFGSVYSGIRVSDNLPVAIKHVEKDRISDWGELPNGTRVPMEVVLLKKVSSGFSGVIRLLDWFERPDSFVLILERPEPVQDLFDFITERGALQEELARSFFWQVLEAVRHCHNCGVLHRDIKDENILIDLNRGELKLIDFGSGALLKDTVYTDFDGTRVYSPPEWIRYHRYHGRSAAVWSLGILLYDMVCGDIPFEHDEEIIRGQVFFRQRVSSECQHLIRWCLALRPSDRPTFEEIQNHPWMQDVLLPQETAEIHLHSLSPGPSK
Summary of the method: as §1

Pim-3 = molecular target: T3, Pim-3 (Homo sapiens, UniProt Q86V86); assay: TR-FRET assay, Pim-3 kinase (phosphorylation of Bad Ser112); format: biochemical; settings: TR-FRET; ATP 40 μM; read-out: IC50 Pim3
T3 construct: His6-labelled recombinant full-length human Pim-1, Pim-2 or Pim-3 protein; His6; made in house
Summary of the method: as §1

[1] = MOLM-13 cells, cell proliferation/viability, read-out: IC50 MOLM-13 μM (myeloma)
[2] = MV4-11 cells, cell proliferation/viability, read-out: IC50 MV4-11 μM (myeloma)
[3] = EOL-1 cells, cell proliferation/viability

Compound | IC50 (Pim-2) [nM] | IC50 (MOLM-13; [1]) [nM] | IC50 (PLK1) [nM] | IC50 (MV4-11; [2]) [nM] | EC50 (EOL-1; [3]) [nM] | IC50 (Pim-1) [nM] | IC50 (Pim-3) [nM] | IC50 (MOLM-13; MOLM-13, read-out: IC50 MOLM-13 μM (myeloma)) [nM] | IC50 (MV4-11; MV4-11, read-out: IC50 MV4-11 μM (myeloma)) [nM] | EC50 (EOL-1) [nM]
COc1cnc2[nH]c3cnc(-c4cccnc4)cc3c2c1 [Example 7, 3-methoxy-6-(pyrid-3-yl)-9H-pyrrolo-[2,3-b:5,4-c′]-dipyridine] | 100 to 1000 | 100 to 1000 | 100 to 1000 | 100 to 1000 | 100 to 1000 | 1 to 100 | 1 to 100 | – | – | –
COc1ccnc2[nH]c3cnc(-c4cccnc4)cc3c12 [Example 8, 4-methoxy-6-(pyrid-3-yl)-9H-pyrrolo-[2,3-b:5,4-c′]-dipyridine] | 1000 to 5000 | 100 to 1000 | 100 to 1000 | 100 to 1000 | 100 to 1000 | 1 to 100 | 100 to 1000 | – | – | –
Fc1cnc2[nH]c3cnc(-c4cccnc4)cc3c2c1N1CCOCC1 [Example 33, 3-fluoro-4-(morpholin-4-yl)-6-(pyrid-3-yl)-9H-pyrrolo[2,3-b:5,4-c′]-dipyridine] | 100 to 1000 | 100 to 1000 | – | 1000 to 5000 | 100 to 1000 | 1 to 100 | 100 to 1000 | – | – | –
CN(C)CCCN(c1ccc(-c2c(F)cnc3[nH]c4cnc(-c5cccnc5)cc4c23)cc1)S(C)(=O)=O [Example 49, N-[3-(dimethylamino)propyl]-N-{4-[3-fluoro-6-(pyrid-3-yl)-9H-pyrrolo[2,3-b:5,4-c′]-dipyrid-4-yl]phenyl}methanesulfonamide] | 1 to 100 | – | 100 to 1000 | 1 to 100 | 1 to 100 | 1 to 100 | 1 to 100 | – | – | –
CCN1CCN(C(C)(C)C#Cc2c(F)cnc3[nH]c4cnc(-c5cccnc5)cc4c23)CC1 [Example 92, 4-[3-(4-ethylpiperazin-1-yl)-3-methylbut-1-yn-1-yl]-3-fluoro-6-(pyrid-3-yl)-9H-pyrrolo-[2,3-b:5,4-c′]dipyridine] | 1000 to 5000 | – | 100 to 1000 | 1000 to 5000 | 100 to 1000 | 1 to 100 | 1 to 100 | – | – | –
CN(C)CCCOc1ccc(-c2c(F)cnc3[nH]c4cnc(-c5cccnc5)cc4c23)cc1 [Example 94, 3-{-4-[3-fluoro-6-(pyrid-3-yl)-9H-pyrrolo[2,3-b:5,4-c′]dipyrid-4-yl]phenoxy}-N,N-dimethylpropan-1-amine] | 100 to 1000 | – | 1 to 100 | – | – | 1 to 100 | 1 to 100 | 100 to 1000 | 1 to 100 | 1 to 100
CN(C)CCOc1ccc(-c2c(F)cnc3[nH]c4cnc(-c5cccnc5)cc4c23)cc1 [Example 96, 2-{4-[3-fluoro-6-(pyrid-3-yl)-9H-pyrrolo[2,3-b:5,4-c′]dipyrid-4-yl]-phenoxy}-N,N-dimethylethanamine] | 100 to 1000 | 100 to 1000 | 100 to 1000 | 100 to 1000 | 1 to 100 | 1 to 100 | 1 to 100 | – | – | –
Fc1cnc2[nH]c3cnc(-c4cccnc4)cc3c2c1-c1ccc(OCCN2CCCC2)cc1 [Example 97, 3-fluoro-6-(pyrid-3-yl)-4-{4-[2-(pyrrolidin-1-yl)ethoxy]phenyl}-9H-pyrrolo[2,3-b:5,4-c′]dipyridine] | 100 to 1000 | 100 to 1000 | 1 to 100 | 100 to 1000 | 100 to 1000 | 1 to 100 | 1 to 100 | – | – | –
CC(COc1ccc(-c2c(F)cnc3[nH]c4cnc(-c5cccnc5)cc4c23)cc1)CN(C)C (stereo not shown) [Example 98, 3-{4-[3-fluoro-6-(pyrid-3-yl)-9H-pyrrolo[2,3-b:5,4-c′]dipyrid-4-yl]phenoxy}-N,N,2-trimethylpropan-1-amine] | 1 to 100 | 100 to 1000 | 100 to 1000 | 100 to 1000 | 1 to 100 | 1 to 100 | 1 to 100 | – | – | –
CC(C)N1CCN(c2ccc(-c3cnc4[nH]c5cnc(-c6cccnc6)cc5c4c3)cc2)CC1 [Example 122, 3-{4-[4-(propan-2-yl)piperazin-1-yl]phenyl}-6-(pyrid-3-yl)-9H-pyrrolo[2,3-b:5,4-c′]-dipyridine] | 100 to 1000 | – | 1000 to 5000 | 1 to 100 | 1 to 100 | 1 to 100 | 1 to 100 | – | – | –
CCN(CC)CCCn1cc(-c2cnc3[nH]c4cnc(-c5cccnc5)cc4c3c2)cn1 [Example 127, N,N-diethyl-3-{4-[6-(pyrid-3-yl)-9H-pyrrolo-[2,3-b:5,4-c′]-dipyrid-3-yl]-1H-pyrazol-1-yl}-propan-l-amine] | 100 to 1000 | – | 1000 to 5000 | 1 to 100 | 1 to 100 | 1 to 100 | 1 to 100 | – | – | –
CCN1CCCC1Cn1cc(-c2cnc3[nH]c4cnc(-c5cccnc5)cc4c3c2)cn1 (stereo not shown) [Example 128, 3-{1-[(1-ethylpyrrolidin-2-yl)methyl]-1H-pyrazol-4-yl}-6-(pyrid-3-yl)-9H-pyrrolo[2,3-b:5,4-c′]dipyridine] | – | 1 to 100 | – | 1 to 100 | 1 to 100 | – | – | – | – | –
c1cncc(-c2cc3c(cn2)[nH]c2ncc(-c4ccc(N5CCNCC5)cc4)cc23)c1 [Example 130, 3-[4-(piperazin-1-yl)phenyl]-6-(pyrid-3-yl)-9H-pyrrolo[2,3-b:5,4-c′]dipyridine] | 100 to 1000 | 1 to 100 | – | 1 to 100 | 1 to 100 | 1 to 100 | 1 to 100 | – | – | –
COc1cnc2[nH]c3cnc(-c4cnn(C)c4)cc3c2c1 [Example 163, 3-methoxy-6-(1-methyl-1H-pyrazol-4-yl)-9H-pyrrolo[2,3-b:5,4-c′]dipyridine] | 100 to 1000 | – | 1000 to 5000 | 100 to 1000 | 100 to 1000 | 1 to 100 | 1 to 100 | – | – | –
COc1cnc2[nH]c3cnc(-c4cnn(CCCCCNC(=O)OC(C)(C)C)c4)cc3c2c1 [Example 167, 2-methyl-2-propyl {5-[4-(3-methoxy-9H-pyrrolo[2,3-b:5,4-c′]dipyrid-6-yl)-1H-pyrazol-1-yl]pentyl}carbamate] | 1000 to 5000 | – | > 5000 | – | – | 100 to 1000 | 100 to 1000 | – | – | –
